Consider nine molecules from patent publication US11236129B2, “IL-17A binding peptides and medical uses thereof” (Dompe' Farmaceutici S.P.A., priority 2018, dated 2022).

Series [1] has as its target IL-17RA/IL17RC dimerization induced by IL-17A (Homo sapiens, UniProt Q16552). Put plainly: IL-17RA/IL17RC dimerization assay in response to IL-17A (PathHunter Cytokine Receptor Assay). Type of series: cell-based. The settings on record: IL-17A at EC80; read-out: IC50 in IL-17RA/IL7RC dimerization assay. The method in brief:
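Receptor dimerization was read as chemiluminescence from complemented β-galactosidase after IL-17A at EC80 concentration for 6–16 h at 37 °C. Peptides were added 60 min before agonist, at 37 °C or room temperature, with 1% vehicle. Percent inhibition used the EC80-stimulated and vehicle wells as references.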

Series [2] is classed as physicochemical. Particulars: pH 7.8. A digest of the protocol: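 Peptides dissolved in phosphate buffer pH 7.8 as 10 mM stocks (more dilute for less soluble ones) and stored at 25 °C. Content measured by reversed-phase UHPLC (C18, 0.5% formic acid water/acetonitrile gradient, DAD 220-400 nm, ESI-MS ion trap) after 1:100 dilution to 100 μM, against 100 μM standards, at T0, 3 days and 1 week.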

Series [3] in a line: Isoelectric point, log D and log P (SiriusT3). The settings on record: for IP (isoelectric point): 25±1° C., 0.15 M KCl; for logD: pH 7.4, pH 7.4, octanol/ISA water, read-out: Log D (7.4). It counts as physicochemical.
[4] abbreviates: octanol/ISA water, read-out: logP.

Each structure is given as a SMILES string. Read-outs that look alike come from different tables or passages of the source. Residues, ends and D or L forms follow the SMILES beside them.

Sequence of IL-17RA/IL17RC dimerization induced by IL-17A (Q16552 24-155): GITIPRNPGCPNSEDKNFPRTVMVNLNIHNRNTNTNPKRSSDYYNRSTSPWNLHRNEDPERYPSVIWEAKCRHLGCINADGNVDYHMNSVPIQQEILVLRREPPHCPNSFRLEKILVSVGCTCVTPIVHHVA

As usually defined, the solubility is the concentration that dissolves in the medium under given conditions. Broadly, the logP is a log measure of how a compound divides between an organic and an aqueous phase. On to `CC[C@H](C)[C@H](NC(=O)[C@H](Cc1c[nH]c2ccccc12)NC(=O)[C@H](CCC(=O)O)NC(=O)[C@H](Cc1ccc(O)cc1)NC(=O)[C@H](CC(C)C)NC(=O)[C@H](CC(=O)O)NC(=O)[C@H](C)NC(=O)[C@@H]1CCCN1C(=O)[C@@H](NC(=O)[C@@H](NC(=O)[C@@H](NC(=O)[C@H](CCSC)NC(=O)[C@@H](NC(C)=O)C(C)C)C(C)C)[C@@H](C)O)[C@@H](C)CC)C(=O)N[C@@H](CCC(=O)O)C(=O)N[C@@H](CCC(=O)O)C(=O)N[C@H](C(=O)N1CCC[C@H]1C(=O)NCC(=O)N[C@@H](CCCCN)C(=O)NCC(N)=O)C(C)C` [SEQ ID NO: 26] (Ac-VMVTIPADLYEWIEEVPGKG-NH2), for which the IC50 in series [1] was below 1000 nM. In series [2], this molecule yielded a solubility above 10000 µM. Further, in series [3], the “IP (isoelectric point)” value is 8.13 and the logD worked out at 0.148. Moreover, the logP in series [3] (setting [4]) is 0.69.
With `CC[C@H](C)[C@H](NC(=O)[C@H](Cc1c[nH]c2ccccc12)NC(=O)[C@H](CCC(=O)O)NC(=O)[C@H](Cc1ccc(O)cc1)NC(=O)[C@H](CC(C)C)NC(=O)[C@H](CC(=O)O)NC(=O)[C@H](C)NC(=O)[C@@H]1CCCN1C(=O)[C@@H](NC(=O)[C@@H](NC(=O)[C@@H](NC(=O)[C@H](CCSC)NC(=O)[C@@H](NC(C)=O)C(C)C)C(C)C)[C@@H](C)O)[C@@H](C)CC)C(=O)N[C@@H](CCC(=O)O)C(=O)N[C@@H](CCC(=O)O)C(=O)N[C@H](C(=O)N1CCC[C@H]1C(=O)NCC(=O)N[C@@H](C)C(=O)NCC(N)=O)C(C)C` [SEQ ID NO: 27] (Ac-VMVTIPADLYEWIEEVPGAG-NH2), the IC50 in series [1] is below 1000 nM. This molecule showed a solubility in series [2] above 10000 µM. For the same molecule, in series [3], the “IP (isoelectric point)” value came to 5.14 and the logD was determined as 0.148. The logP in series [3] (setting [4]) worked out at 0.69.
Regarding `CC[C@H](C)[C@H](NC(=O)[C@H](Cc1c[nH]c2ccccc12)NC(=O)[C@H](CCC(=O)O)NC(=O)[C@H](Cc1ccc(O)cc1)NC(=O)[C@H](CC(C)C)NC(=O)[C@H](CC(=O)O)NC(=O)[C@H](C)NC(=O)[C@@H]1CCCN1C(=O)[C@@H](NC(=O)[C@@H](NC(=O)[C@@H](NC(=O)[C@H](CCSC)NC(=O)[C@@H](NC(C)=O)C(C)C)C(C)C)[C@@H](C)O)[C@@H](C)CC)C(=O)N[C@@H](CCC(=O)O)C(=O)N[C@@H](CCC(=O)O)C(=O)N[C@@H](CCCNC(=N)N)C(=O)N[C@@H](CCC(N)=O)C(=O)N[C@H](C(=O)N[C@@H](CCCCN)C(=O)N[C@H](C(=O)N[C@@H](Cc1c[nH]c2ccccc12)C(=O)N[C@@H](Cc1ccccc1)C(=O)N[C@@H](CCC(N)=O)C(=O)N[C@@H](CC(N)=O)C(=O)N[C@@H](CCCNC(=N)N)C(=O)N[C@@H](CCCNC(=N)N)C(=O)N[C@@H](CCSC)C(=O)N[C@@H](CCCCN)C(=O)N[C@@H](Cc1c[nH]c2ccccc12)C(=O)N[C@@H](CCCCN)C(=O)N[C@@H](CCCCN)C(N)=O)[C@@H](C)CC)[C@@H](C)CC` [SEQ ID NO: 28] (Ac-VMVTIPADLYEWIEERQIKIWFQNRRMKWKK-NH2), the IC50 in series [1] was below 1000 nM. This molecule also had a solubility in series [2] of at least 100 µM. Also, in series [3], the logP is −6.36 and the “IP (isoelectric point)” value amounted to 12.25. Moreover, in series [3] (pH 7.4), the “Log D (7.4)” value was −6.44.
With `CC[C@H](C)[C@H](NC(=O)[C@H](Cc1c[nH]c2ccccc12)NC(=O)[C@H](CCC(=O)O)NC(=O)[C@H](Cc1ccc(O)cc1)NC(=O)[C@H](CC(C)C)NC(=O)[C@H](CC(=O)O)NC(=O)[C@H](C)NC(=O)[C@@H]1CCCN1C(=O)[C@@H](NC(=O)[C@@H](NC(=O)[C@@H](NC(=O)[C@H](CCSC)NC(=O)[C@@H](NC(=O)[C@H](CCCNC(=N)N)NC(=O)[C@H](CCCNC(=N)N)NC(=O)[C@H](CCCNC(=N)N)NC(=O)[C@H](CCCNC(=N)N)NC(=O)[C@H](CCCNC(=N)N)NC(=O)[C@H](CCCNC(=N)N)NC(=O)[C@H](CCCNC(=N)N)NC(=O)[C@H](CCCNC(=N)N)NC(C)=O)C(C)C)C(C)C)[C@@H](C)O)[C@@H](C)CC)C(=O)N[C@@H](CCC(=O)O)C(=O)N[C@@H](CCC(=O)O)C(N)=O` [SEQ ID NO: 29] (Ac-RRRRRRRRVMVTIPADLYEWIEE-NH2), the IC50 in series [1] was below 1000 nM. The solubility in series [2] was above 10000 µM. The “IP (isoelectric point)” value in series [3] came out at 12.25.
On to `CC[C@H](C)[C@H](NC(=O)[C@H](Cc1c[nH]c2ccccc12)NC(=O)[C@H](CCC(=O)O)NC(=O)[C@H](Cc1ccc(O)cc1)NC(=O)[C@H](CC(C)C)NC(=O)[C@H](CC(=O)O)NC(=O)[C@H](C)NC(=O)[C@@H]1CCCN1C(=O)[C@@H](NC(=O)[C@@H](NC(=O)[C@@H](NC(=O)[C@H](CCSC)NC(=O)[C@@H](NC(C)=O)C(C)C)C(C)C)[C@@H](C)O)[C@@H](C)CC)C(=O)N[C@@H](CCC(=O)O)C(=O)N[C@@H](CCC(=O)O)C(=O)N[C@@H](CCCNC(=N)N)C(=O)N[C@@H](CCCNC(=N)N)C(=O)N[C@@H](CCCNC(=N)N)C(=O)N[C@@H](CCCNC(=N)N)C(=O)N[C@@H](CCCNC(=N)N)C(=O)N[C@@H](CCCNC(=N)N)C(=O)N[C@@H](CCCNC(=N)N)C(=O)N[C@@H](CCCNC(=N)N)C(N)=O` [SEQ ID NO: 30] (Ac-VMVTIPADLYEWIEERRRRRRRR-NH2), for which, in series [1], the IC50 was below 1000 nM. Besides, the solubility in series [2] was at least 100 µM. Also, in series [3], the “IP (isoelectric point)” value worked out at 12.96 and the logD was -3.89.
For `CC[C@H](C)[C@H](NC(=O)[C@H](Cc1c[nH]c2ccccc12)NC(=O)[C@H](CCC(=O)O)NC(=O)[C@H](Cc1ccc(O)cc1)NC(=O)[C@H](CC(C)C)NC(=O)[C@H](CC(=O)O)NC(=O)[C@H](C)NC(=O)[C@@H]1CCCN1C(=O)[C@@H](NC(=O)[C@@H](NC(=O)[C@@H](NC(=O)[C@H](CCSC)NC(=O)[C@@H](NC(=O)[C@H](C)NC(=O)[C@H](CCCCN)NC(=O)[C@H](C)NC(=O)[C@H](C)NC(=O)[C@H](CCCCN)NC(=O)[C@H](CCCCN)NC(=O)[C@H](CCCNC(=N)N)NC(=O)[C@H](C)NC(C)=O)C(C)C)C(C)C)[C@@H](C)O)[C@@H](C)CC)C(=O)N[C@@H](CCC(=O)O)C(=O)N[C@@H](CCC(=O)O)C(N)=O` [SEQ ID NO: 31] (Ac-ARKKAAKAVMVTIPADLYEWIEE-NH2), in series [1], the IC50 was below 1000 nM. In addition, the solubility in series [2] is above 10000 µM. In series [3], the “IP (isoelectric point)” value was 12.5 and the logD is -3.59. In series [3] (setting [4]), the logP was -4.9.
As to `CC[C@H](C)[C@H](NC(=O)[C@H](Cc1c[nH]c2ccccc12)NC(=O)[C@H](CCC(=O)O)NC(=O)[C@H](Cc1ccc(O)cc1)NC(=O)[C@H](CC(C)C)NC(=O)[C@H](CC(=O)O)NC(=O)[C@H](C)NC(=O)[C@@H]1CCCN1C(=O)[C@@H](NC(=O)[C@@H](NC(=O)[C@@H](NC(=O)[C@H](CCSC)NC(=O)[C@@H](NC(=O)[C@H](CCC(N)=O)NC(=O)[C@H](CO)NC(=O)[C@H](Cc1c[nH]c2ccccc12)NC(=O)[C@H](CCC(=O)O)NC(=O)[C@@H](NC(=O)[C@H](Cc1c[nH]c2ccccc12)NC(=O)[C@H](Cc1c[nH]c2ccccc12)NC(=O)[C@@H](NC(=O)CNC(=O)CNC(C)=O)[C@@H](C)O)[C@@H](C)O)C(C)C)C(C)C)[C@@H](C)O)[C@@H](C)CC)C(=O)N[C@@H](CCC(=O)O)C(=O)N[C@@H](CCC(=O)O)C(N)=O` [SEQ ID NO: 32] (Ac-GGTWWTEWSQVMVTIPADLYEWIEE-NH2), the IC50 in series [1] is below 1000 nM. Also, in series [2], the solubility was below 50 µM. For the same molecule, in series [3], the logD was -3.59.
Take `CC[C@H](C)[C@H](NC(=O)[C@H](Cc1c[nH]c2ccccc12)NC(=O)[C@H](CCC(=O)O)NC(=O)[C@H](Cc1ccc(O)cc1)NC(=O)[C@H](CC(C)C)NC(=O)[C@H](CC(=O)O)NC(=O)[C@H](C)NC(=O)[C@@H]1CCCN1C(=O)[C@@H](NC(=O)[C@@H](NC(=O)[C@@H](NC(=O)[C@H](CCSC)NC(=O)[C@@H](NC(=O)[C@H](Cc1c[nH]c2ccccc12)NC(=O)[C@@H](NC(=O)[C@H](CCC(=O)O)NC(=O)[C@H](Cc1c[nH]c2ccccc12)NC(=O)[C@H](Cc1c[nH]c2ccccc12)NC(=O)[C@@H](NC(=O)[C@H](CCC(=O)O)NC(=O)[C@H](CCCCN)NC(=O)CNC(=O)CNC(C)=O)[C@@H](C)O)[C@@H](C)O)C(C)C)C(C)C)[C@@H](C)O)[C@@H](C)CC)C(=O)N[C@@H](CCC(=O)O)C(=O)N[C@@H](CCC(=O)O)C(N)=O` [SEQ ID NO: 33] (Ac-GGKETWWETWVMVTIPADLYEWIEE-NH2): the IC50 in series [1] was below 1000 nM. The same molecule came in with a solubility in series [2] of at least 100 µM. Moreover, in series [3], the “IP (isoelectric point)” value is listed as 4.46 and the logD is -1.06. Also, in series [3] (setting [4]), the log partition coefficient (logP) is 1.99.
The like results for `CC[C@H](C)[C@H](NC(=O)[C@H](Cc1c[nH]c2ccccc12)NC(=O)[C@H](CCC(=O)O)NC(=O)[C@H](Cc1ccc(O)cc1)NC(=O)[C@H](CC(C)C)NC(=O)[C@H](CC(=O)O)NC(=O)[C@H](C)NC(=O)[C@@H]1CCCN1C(=O)[C@@H](NC(=O)[C@@H](NC(=O)[C@@H](NC(=O)[C@H](CCSC)NC(=O)[C@@H](NC(=O)CNC(=O)[C@H](Cc1c[nH]c2ccccc12)NC(=O)CNC(=O)[C@@H]1CCCN1C(=O)[C@@H](NC(C)=O)C(C)C)C(C)C)C(C)C)[C@@H](C)O)[C@@H](C)CC)C(=O)N[C@@H](CCC(=O)O)C(=O)N[C@@H](CCC(=O)O)C(N)=O` [SEQ ID NO: 34] (Ac-VPGWGVMVTIPADLYEWIEE-NH2) were, in that order, below 1000 nM, below 50 µM, 5.14, -3.38 and -5.43.
